{
  "source": "patent US4421745A",
  "about": "“Antiepileptics” (Takeda Chemical Industries, Ltd., priority 1981, dated 1983)",
  "key": {"temporal lobe epilepsy": {"tested_on": "temporal lobe epilepsy", "test": "Clinical Case 5: DN-1417 treatment of epileptic patient", "format": "in vivo, human", "protocol": "In addition to the prior medication of antiepileptics (10 tablets of HYDANTOL F® each containing 25 mg. phenytoin, 8 mg. phenobarbital and 17 mg. caffeine and sodium benzoate, 1 g. of carbamazepine, 0.09 g. of phenobarbital and 250 mg. of actazolamide), DN-1417 was intramuscularly administered in dose of 1 mg./day for 2 weeks. […] From the 7th day of the DN-1417 treatment they began to explain their conditions as, \"The time to get off the bed from awaking has been shortened.\" and \"Became easy to get to the next action in doing anything.\"Improvement of such psychic symptoms was maintained for a week after the end of the DN-1417 treatment. Automatism occurred a week after the end of the DN-1417 treatment and impaired-consciousness seizure occurred twice in the 3rd week of post-treatment."}, "[1]": {"tested_on": "degenerative myoclonus epilepsy", "test": "Clinical Case 1: DN-1417 treatment of epileptic patient", "format": "in vivo, human", "protocol": "They were given DN-1417, 2 mg. i.m. at 10:00 A.M. every day for 2 weeks concomitantly with the prior antiepileptics."}, "[2]": {"tested_on": "epilepsy (tonic convulsion, tonoclonic convulsion and clonic convulsion)", "test": "Clinical Case 4: DN-1417 treatment of epileptic patient", "format": "in vivo, human", "protocol": "During the period from July 22 to Aug. 4, 1981, DN-1417 was administered intramuscularly in daily doses of 1 mg. for 14 days, together with the antiepileptics so far employed."}, "Lennox's syndrome": {"tested_on": "Lennox's syndrome", "test": "Clinical Case 3: DN-1417 treatment of epileptic patient", "format": "in vivo, human", "protocol": "During the period from July 22 to Aug. 4, 1981, 1 mg of DN-1417 was administered intramuscularly once daily for 14 consecutive days, concomitantly with the antipileptics so far employed."}, "[3]": {"tested_on": "epilepsy, tuberous sclerosis (tonic convulsion and atypical absence)", "test": "Clinical Case 2: DN-1417 treatment of epileptic patient", "format": "in vivo, human", "protocol": "In conjunction with the antiepileptic drugs so far used, DN-1417 was administered intramuscularly in doses of 0.5 mg. for 10 days and, then, in doses of 1 mg. for 4 days."}, "West's syndrome": {"tested_on": "West's syndrome", "test": "Clinical Case 6: DN-1417 treatment of epileptic patient", "format": "in vivo, human", "conditions": "for Frequency of seizure occurrences: before DN-1417", "protocol": "Nitrazepam in dosage of 1.5 mg./day was administered in three divided doses to show less frequency of the seizure occurrences (from 10 times a day to 6-7 times a day). […] The drowsiness was fairly ameliorated but the frequency of the seizure occurrences was not reduced (10 times a day).\nDN-1417 in dosage of 0.03 mg./kg. (0.3 mg./day) was intravenously given for 22 days in addition to the treatment with nitrazepam in dosage of 0.6 mg./day."}, "[4]": {"test": "Blood concentrations of antiepileptics in Case 3", "from_the_text": "The treatment consisted of a multiple drug therapy using phenytoin, phenobarbital, sodium valproate, nitrazepam and clonazepam."}},
  "data": [
    {"compound": "NC(=O)[C@@H]1CCCN1C(=O)[C@H](Cc1c[nH]cn1)NC(=O)[C@@H]1CCC(=O)O1.O=C(O)CC(O)(CC(=O)O)C(=O)O", "note": "[DN-1417, (S)-γ-butyrolactone-γ-carbonyl-L-histidyl-L-prolinamide citrate]", "values": [
      {"measurement": "EEG findings", "setting": "temporal lobe epilepsy", "result": "No noteworthy change"},
      {"measurement": "Overall clinical effect", "setting": "temporal lobe epilepsy", "result": "effective in this patient"},
      {"measurement": "Seizures during the treatment", "setting": "temporal lobe epilepsy; 1 mg/day i.m. for 2 weeks with prior antiepileptics", "result": "autonomic seizure occurred once"},
      {"measurement": "Psychic symptoms such as decrease of volition", "setting": "temporal lobe epilepsy; during DN-1417 treatment", "result": "improved"},
      {"measurement": "Time after withdrawal until photomyoclonic response reappeared", "setting": "[1]", "result": "about 80 days"},
      {"measurement": "Type of action from EEG changes and clinical symptoms", "setting": "[1]", "result": "antimyoclonic action though not a definite anticonvulsive action"},
      {"measurement": "Continuation of clinical improvement after withdrawal of the drug", "setting": "[1]; 2 mg daily for 2 weeks", "result": "about 1 month"},
      {"measurement": "Side effect", "setting": "[1]; 2 mg daily for 2 weeks", "result": "without any side effect"},
      {"measurement": "Overall clinical effect", "setting": "[1]; 2 mg i.m. daily for 2 weeks with prior antiepileptics", "result": "effective in improving myoclonus, cerebellar symptoms, psychic activity and EEG"},
      {"measurement": "EEG", "setting": "[1]; 3rd day of treatment", "result": "No improvement"},
      {"measurement": "Persistence of marked EEG improvements", "setting": "[1]; after 2nd EEG at day 8 of treatment", "result": "about 50 days"},
      {"measurement": "EEG response to photic stimulation", "setting": "[1]; day 8 of treatment", "result": "entirely normal"},
      {"measurement": "Activities of daily life and mental condition (summary)", "setting": "[2]", "result": "A remarkable improvement"},
      {"measurement": "Clinical seizures (summary)", "setting": "[2]", "result": "No change or a slight improvement"},
      {"measurement": "EEG (summary)", "setting": "[2]", "result": "A moderate improvement"},
      {"measurement": "Overall evaluation", "setting": "[2]", "result": "moderate improvement"},
      {"measurement": "Side effect", "setting": "[2]", "result": "no apparent side effect"},
      {"measurement": "Epileptic seizures", "setting": "[2]; 1 mg i.m. daily for 14 days with prior antiepileptics, after one week", "result": "No epileptic seizure"},
      {"measurement": "EEG", "setting": "[2]; after 2 weeks", "result": "fair improvement in continuity, with a regularity"},
      {"measurement": "Epileptic seizures", "setting": "[2]; after 2 weeks", "result": "No epileptic seizure"},
      {"measurement": "EEG", "setting": "[2]; after one week", "result": "remarkable improvement"},
      {"measurement": "Seizures after withdrawal", "setting": "[2]; three weeks after withdrawal", "result": "Clonic convulsion appeared on day 6 after withdrawal"},
      {"measurement": "Overall clinical effect", "setting": "Lennox's syndrome", "result": "decreased incidence of clinical episodes, improved EEG findings and remarkable improvements in daily life"},
      {"measurement": "Side effect", "setting": "Lennox's syndrome", "result": "no side effect"},
      {"measurement": "Clinical episodes", "setting": "Lennox's syndrome; 1 mg i.m. once daily for 14 days with prior antiepileptics, after one week", "result": "no clinical episode"},
      {"measurement": "Clinical episodes", "setting": "Lennox's syndrome; after 2 weeks", "result": "one episode of atypical absence"},
      {"measurement": "EEG", "setting": "Lennox's syndrome; after 2 weeks", "result": "no polyspike-and-slow wave complex and only a decreased sharp-and-slow wave complex"},
      {"measurement": "EEG", "setting": "Lennox's syndrome; after one week", "result": "decrease in polyspike-and-slow wave complex but an increase in sharp-and-slow wave complex"},
      {"measurement": "Clinical episodes", "setting": "Lennox's syndrome; one week after withdrawal", "result": "No clinical episode"},
      {"measurement": "EEG", "setting": "Lennox's syndrome; one week after withdrawal", "result": "less bursts, with an increased regularity of basal wave"},
      {"measurement": "Overall clinical effect", "setting": "[3]", "result": "remarkable improvements in daily activity and improvements in clinical episode and EEG"},
      {"measurement": "Side effect", "setting": "[3]", "result": "no side effect"},
      {"measurement": "Clinical episodes", "setting": "[3]; after 2 weeks", "result": "no clinical episodes"},
      {"measurement": "EEG", "setting": "[3]; after 2 weeks, EEG at sleep", "result": "frequency of paroxymal patterns was halved"},
      {"measurement": "Clinical episodes", "setting": "[3]; i.m. 0.5 mg for 10 days then 1 mg for 4 days with prior antiepileptics, after one week", "result": "No clinical episodes"},
      {"measurement": "Overall clinical effect", "setting": "West's syndrome", "result": "effective for West's syndrome"},
      {"measurement": "EEG", "setting": "West's syndrome; 2 weeks after the DN-1417 treatment", "result": "did not show hypsarhythmia"},
      {"measurement": "Drowsiness", "setting": "West's syndrome; after a week", "result": "drowsiness due to nitrazepam was reduced"},
      {"measurement": "EEG", "setting": "West's syndrome; after a week", "result": "remained unchanged"},
      {"measurement": "Seizure frequency", "setting": "West's syndrome; from the 2nd week of treatment, same at the 3rd week", "result": "5-6 times a day"},
      {"measurement": "Side effects", "setting": "West's syndrome; whole course", "result": "No side effects"}
    ]},
    {"compound": "O=C1CN=C(c2ccccc2)c2cc([N+](=O)[O-])ccc2N1", "note": "[Nitrazepam, nitrazepam, reference compound]", "values": [
      {"measurement": "Adverse effects", "setting": "West's syndrome; nitrazepam 1.5 mg/day", "result": "Severe drowsiness and stridor"},
      {"measurement": "Frequency of seizure occurrences", "setting": "West's syndrome; nitrazepam 1.5 mg/day in three divided doses", "result": "6-7 times a day"},
      {"measurement": "Frequency of seizure occurrences", "setting": "West's syndrome; nitrazepam reduced to 0.6 mg/day", "result": 10, "unit": "times a day"}
    ]},
    {"compound": "O=C1CN=C(c2ccccc2Cl)c2cc([N+](=O)[O-])ccc2N1", "note": "[clonazepam, reference compound]", "values": [
      {"measurement": "Myoclonus at rest", "setting": "[1]; clonazepam 2 mg daily combined with other antiepileptics, before DN-1417", "result": "almost complete disappearance"}
    ]},
    {"compound": "CCC1(c2ccccc2)C(=O)NC(=O)NC1=O", "note": "[phenobarbital]", "values": [
      {"measurement": "Blood concentration", "setting": "[4]; Case 3, after 2 weeks of DN-1417 1 mg i.m. daily with the antiepileptics", "result": 24.6, "unit": "µg/mL"},
      {"measurement": "Blood concentration", "setting": "[4]; Case 3, multiple drug therapy before DN-1417", "result": 18.9, "unit": "µg/mL"}
    ]},
    {"compound": "O=C1NC(=O)C(c2ccccc2)(c2ccccc2)N1", "note": "[phenytoin]", "values": [
      {"measurement": "Blood concentration", "setting": "[4]; in vivo", "result": 9.0, "unit": "µg/mL"}
    ]},
    {"compound": "CCCC(CCC)C(=O)[O-].[Na+]", "note": "[sodium valproate, reference compound]", "values": [
      {"measurement": "Convulsions", "setting": "[1]; after about 3 months on sodium valproate, before DN-1417", "result": "convulsions were inhibited"},
      {"measurement": "Myoclonus", "setting": "[1]; on sodium valproate, before DN-1417", "result": "remained prominent"},
      {"measurement": "Blood concentration", "setting": "[4]; in vivo", "result": 36, "unit": "µg/mL"}
    ]},
    {"compound": "ACTH: ACTH therapy; adrenocorticotropic hormones (SYSMEHFRWGKPVGKKRRPVKVYPNGAEDESAEAFPLEF; Corticotropin; UniProt P01189 138-176, looked up) [reference compound]", "values": [
      {"measurement": "Effect of ACTH therapy", "setting": "Lennox's syndrome; before DN-1417", "result": "with no avail"}
    ]}
  ]
}
